Structures are written as SMILES.

Series [1] has as its system human primary dermal fibroblasts. Description: Attachment and spreading of primary dermal fibroblasts on a Type I collagen matrix. Format: cell-based. How it is done: Assay of HF effects on contractile behavior of dermal fibroblasts. Previous studies have established that HF can modulate fibrosis in vivo, and regulate ECM production by cells in vitro. The studies described herein provide a simple assay to test the effects of HF and its putative mediators on the behavior of cells likely to provide the basis for the structural features of cellulite—dermal fibroblasts and myofibroblasts. When human primary dermal fibroblasts are cultured in a matrix of Type I collagen, mimicking the interstitial matrix of the dermis and hypodermis, they attach to the substratum and spread, exerting contractile force on the surrounding interstitial matrix (FIG. 2A).

Series [2] has as its system Primary human dermal fibroblasts. Format: cell-based. To be noted: 100 nM, 5 ng/ml TGFβ1. As for the experimental part:
Primary human dermal fibroblasts were seeded in a matrix of Type I collagen with 5 ng/ml TGFβ1 in the presence or absence of 100 nM HF. FIG. 7 depicts the effect of the presence and absence of HF on the behavior of TGFβ-treated dermal fibroblasts.

A further series has as its target T1, RuvBl2 (Mus musculus, UniProt Q9WTM5).
T1 construct: endogenous in cells; host or cells: SV-MES cell lysate (inferred from the same approach described)
Description: HF affinity purification / tandem mass spectrometry, RuvBl2. Format: binding. The text has this: TIF1β is a member of a family of transcriptional co-repressors (Chang, et al., Mol Cell Biol, vol. 18: 5880-87 (1998); Hsu, et al. Embo J., vol. 20: 2273-85 (2001); Le Douarin, et al. J Steroid Biochem Mol Biol 65, 43-50 (1998)). TIF1β interacts with a variety of transcription factors, including nuclear receptors, to mediate regulation of chromatin modification (Chang, et al., Mol Cell Biol, vol. 18: 5880-87 (1998); Hsu, et al. Embo J., vol. 20: 2273-85 (2001); Nomura, et al. J Biol Chem 279, 16715-26 (2004)). TIF1β interacts with a number of transcription factors known to regulate the synthesis of Type I collagen, providing a direct link between HF, TIF1β and the transcription of extracellular matrix genes. […] Ruvbl2, also known as Reptin, ECP51, Tip48, and Tip49b, is, like TIF1β, known to function in transcriptional regulation and chromatin re-modeling (Kanemaki, et al. J Biol Chem 274, 22437-44 (1999)). The identification of halofuginone's intracellular effectors, and the binding sites for halofuginone in those effectors, provides additional approaches to targeting the deposition of sub-dermal ECM. New classes of small molecules can be designed to target intracellular effectors such as TIF1β and RuvBl2, broadening the range of potential therapeutic agents for the treatment of cellulite.

The conditions of series [3]: cited from earlier work.
For series [4], the system named is human primary dermal fibroblasts. Nature of the series: Fibroblast-driven collagen disc contraction. In kind it is cell-based. To be noted: 100 nM, 72 hours. How it is done: Human primary dermal fibroblasts were seeded in a matrix of Type I collagen in the presence or absence of 5 ng/ml TGFβ or 100 nM HF. Collagen discs were released from attachment to the culture dish and allowed to undergo fibroblast-driven contraction for 72 hours. The area of the discs at time zero was 200 units.

Series [5] relates to NMuMg murine epithelial cells. Nature of the series: TGFβ-induced myofibroblast formation, Western blot for smooth muscle actin. To be noted: 5 ng/ml TGFβ1, 72 hours, increasing doses. In kind it is cell-based. How it is done:
NMuMg murine epithelial cells were induced to undergo transition to myofibroblasts by stimulation with 5 ng/ml TGFβ1. After 72 hours, myofibroblast differentiation was assessed by Western blot for Smooth muscle actin (SMA), a myofibroblast contractile protein. […] Thus, HF inhibited myofibroblasts formation in response to TGFβ.
On the technique in general: In western blotting, separated proteins are transferred to a membrane and probed.

For series [6] the following is noted: in vitro; cited from earlier work.
The target of a further series is T2, TIF1β (Mus musculus, UniProt Q62318).
T2 construct: endogenous in cells; host or cells: SV-MES cells (lysate)
T2 sequence (Q62318 whole entry): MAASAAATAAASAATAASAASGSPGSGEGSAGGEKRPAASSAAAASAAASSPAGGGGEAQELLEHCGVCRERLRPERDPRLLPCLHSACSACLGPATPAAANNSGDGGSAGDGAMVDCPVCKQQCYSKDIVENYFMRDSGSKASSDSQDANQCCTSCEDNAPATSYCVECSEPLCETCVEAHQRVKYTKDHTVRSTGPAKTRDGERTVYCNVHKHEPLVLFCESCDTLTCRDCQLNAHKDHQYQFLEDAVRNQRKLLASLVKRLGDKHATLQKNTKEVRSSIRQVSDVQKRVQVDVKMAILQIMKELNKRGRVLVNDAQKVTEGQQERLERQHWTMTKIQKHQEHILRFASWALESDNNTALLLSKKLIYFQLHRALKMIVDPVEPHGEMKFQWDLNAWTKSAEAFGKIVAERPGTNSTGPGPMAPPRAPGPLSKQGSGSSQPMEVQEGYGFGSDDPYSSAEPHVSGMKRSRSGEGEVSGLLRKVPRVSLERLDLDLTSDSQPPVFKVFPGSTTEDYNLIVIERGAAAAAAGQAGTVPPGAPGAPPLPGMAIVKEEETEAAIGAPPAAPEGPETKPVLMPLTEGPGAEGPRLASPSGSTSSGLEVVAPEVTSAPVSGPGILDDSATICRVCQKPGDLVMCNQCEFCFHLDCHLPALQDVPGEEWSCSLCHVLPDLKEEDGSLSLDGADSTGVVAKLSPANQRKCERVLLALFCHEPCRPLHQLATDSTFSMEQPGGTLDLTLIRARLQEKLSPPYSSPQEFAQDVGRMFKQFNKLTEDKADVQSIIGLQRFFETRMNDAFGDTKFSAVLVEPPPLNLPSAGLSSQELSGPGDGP
Nature of the series: HF-affinity resin binding / free-compound competition for TIF1β. From the text: The molecular mechanisms underlying the regulation of ECM by HF currently are not known. […] These proteins, TIF1β and Ruvbl2, are both transcriptional regulatory proteins. TIF1β is known to interact with transcription factors that regulate Type I collagen expression, providing the first molecular connection between HF and the regulation of an ECM gene. A brief description and data detailing the isolation and identification of HF binding proteins are provided below. […] This band was identified by tandem mass spectrometry as TIF1β. These HF binding proteins were isolated and identified by tandem mass spectrometry. Using this approach, the transcriptional co-repressor TIF1β (FIG. 4) was initially identified as an HF binding protein. A cDNA encoding TIF1β was also identified and used to confirm that TIF1β binds specifically to HF (FIG. 5). Cloned, tagged TIF1β was transfected into SV-MES cells and precipitated with HF-resin.

T1 sequence (Q9WTM5 2-463 limits assumed): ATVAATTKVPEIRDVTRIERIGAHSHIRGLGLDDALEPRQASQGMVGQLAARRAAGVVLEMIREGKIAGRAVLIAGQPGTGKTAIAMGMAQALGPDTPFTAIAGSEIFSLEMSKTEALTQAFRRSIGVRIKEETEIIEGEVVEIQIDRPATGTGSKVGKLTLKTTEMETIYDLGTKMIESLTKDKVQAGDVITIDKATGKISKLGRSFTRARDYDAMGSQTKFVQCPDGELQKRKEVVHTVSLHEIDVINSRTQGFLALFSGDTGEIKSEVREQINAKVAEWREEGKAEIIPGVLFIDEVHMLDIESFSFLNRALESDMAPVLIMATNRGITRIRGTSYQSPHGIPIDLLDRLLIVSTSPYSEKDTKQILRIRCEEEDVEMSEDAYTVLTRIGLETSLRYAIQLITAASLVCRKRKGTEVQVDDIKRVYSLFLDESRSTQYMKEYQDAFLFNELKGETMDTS

As for `CC(C)(C)OC(=O)N1CCC[C@H](O)[C@H]1CC(=O)Cn1cnc2cc(Br)c(Cl)cc2c1=O` [MAZ1310], the “ability of fibroblasts to attach and spread on collagen matrix” value in series [1] (200 nM, 24 hrs) was “inactive”.

For the molecule `O=C(CC1NCCCC1O)Cn1cnc2cc(Br)c(Cl)cc2c1=O` (stereo not drawn) [HF, 7-bromo-6-chloro-3-[3-(3-hydroxy-2-piperidinyl)-2-oxopropyl]-4(3H)-quinazolinone], the “fibroblast extensions and attachments to the matrix” value in series [2] is “no extensions or attachments to the matrix or to one another”. Also, the “binding of RuvBl2 to HF” value on RuvBl2 is listed as “second HF binding protein”. The “ability of fibroblasts to attach and spread on collagen matrix” value in series [1] (200 nM, 24 hrs) was “completely fail to attach and spread”; in series [1] (as little as 30 nM), “Identical results”. The “excess dermal ECM deposition” value in series [3] (animal models of wound healing and fibrotic disease, intra-peritoneally, in food or applied locally) is on record as “reduces excess dermal ECM deposition”. Besides, in series [3] (in vivo), the toxicity in vivo entry is listed as “low-toxicity”. In addition, the “contractile activity of myofibroblasts in a collagen matrix (disc area)” value in series [4] is on record as “inhibited the contractile activity”. Also, the “smooth muscle actin (SMA) induction” value in series [5] was “eliminated SMA induction”. The “concentration at which it acts as an inhibitor of fibrosis” value in series [6] is 20 to 200 nM. Besides, the “competition by free compound for binding of TIF1β band to HF affinity resin” value at TIF1β (SV-MES cell lysates, excess free compound) is “specifically competed”. Also, the “blocking of tagged TIF1β interaction with immobilized HF by pre-incubation” value on TIF1β (cloned, tagged TIF1β transfected into SV-MES cells, precipitated with HF-resin) was “blocked TIF1β interaction with immobilized HF”.

The values above are taken from patent US20080025917A1, “Methods for modulating formation and progression of cellulite” (priority 2006, published 2008).
